The values below come from patent publication US12521403B2, “Compositions for the treatment of chronic vulval and perineal pain and symptoms and conditions associated therewith” (TA Pharma Pty Limited, priority 2016, dated 2026).

Where a name gives a salt, the structure may show the parent alone. Read-outs that look alike come from different tables or passages of the source.

The conditions of data set [1]: cited from earlier work.
The nature of data set [2]: Dissolution of estriol in solvents for the organic phase of the organogel. Format: physicochemical. The note with it: propylene glycol alone. As to the method:
The ratio of propylene glycol to LIP was 4:10. For the aqueous phase, amitriptyline HCL was dissolved in water, then PLURONIC® F-127 was added to give a 20% PLURONIC® solution. The two phases were mixed using a syringe to syringe transfer method which produce a relatively high shear mixing. The ratio of organic to aqueous phases was 1:2. This produced a stable organogel with final concentrations of 300 mcg/g estriol and 0.5% w/w amitriptyline. Stability may be increased by the addition of potassium sorbate.
To increase the dissolution of the estriol in the organic phase, and thereby improve bioavailability, a combination of solubiliser (diethylene glycol monoethyl ether) and propylene glycol was employed. […] This was then blended with the LIP to produce the organic phase.

As for `CN(C)CCC=C1c2ccccc2CCc2ccccc21` [Amitriptyline HCL], the solubility in water was 1000 mg/mL in data set [1] (at pH 1.2) and 0.9 mg/mL in data set [1] (at pH 6.8).
As for `C[C@]12CC[C@@H]3c4ccc(O)cc4CC[C@H]3[C@@H]1C[C@@H](O)[C@@H]2O` [Estriol], the “dissolution in propylene glycol” value in data set [2] was “did not produce a clear solution”. Besides, the solubility in water in data set [1] (water) is listed as 27 mg per litre.
